From patent US20040265323A1, “Compositions comprising pathogen elicited epithelial chemoattractant (eicosanoid hepoxilin A3), inhibitors thereof and methods of use thereof” (priority 2003, published 2004)
Values joined by “and” are separate entries in the source; they are usually repeats but may differ in a detail not shown here. Equal entries are not always repeated. “Also recorded” adds a separate entry of the source.

Key:
[1] = system: PMN transmigration across T84 cell monolayers; experiment: PMN transepithelial migration to imposed gradients of lipids across T84 monolayers; format: cell-based, human; details: for PMN transepithelial migration (PEEC activity) induced by added lipid: imposed gradients across T84 cell monolayers, basolateral-to-apical
Procedure: Crude preparations of PEEC were collected from the apical surface of polarized T84 cell monolayers following infection with S. typhimurium SL1344 as previously described (McCormick et al., 1998). For these experiments, T84 intestinal epithelial cells (passages 45 to 65) were grown in a 1:1 mixture of Dulbecco-Vogt modified Eagles medium and Ham's F-12 medium supplemented with 15 mM Hepes buffer (pH 7.5), 14 mM NaHCO3, 40 mg/liter penicillin, 8 mg/liter ampicillin, 90 mg/liter streptomycin and 5% newborn calf serum. Polarized monolayers of T84 cells were formed and maintained on 0.33 cm^2 ring-supported collagen-coated polycarbonate filters (Costar Corp., Cambridge, Mass.) as previously described (Madara et al., 1992) with recently detailed modifications (Dharmsathaphorn and Madara, 1990). T84 cell monolayers reached a steady-state resistance 4 to 6 days after plating with some variability largely related to cell passage number. Cell culture inserts of inverted monolayers, used to study transmigration of PMN in the physiological basolateral-to-apical direction, were constructed as previously described (Madara et al., 1992; Dharmsathaphorn and Madara, 1990; Nash et al., 1991).
(§1) It was further examined if hepoxilin A3 acts in a gradient fashion to drive PMN migration from the basolateral to the apical epithelial surface. For these experiments, the physiologically directed (basolateral-to-apical) PMN transepithelial migration assay using cell culture inserts of inverted T84 monolayers has been used (McCormick et al., 1993; Parkos et al., 1992). Human PMN were isolated from normal volunteers, as described elsewhere (Parkos et al., 1992; Henson and Oades, 1975). PMN transmigration results were represented as PMN cell equivalents (CE) derived from a daily standard PMN dilution curve. PMN which completely traversed the monolayer were represented as the number of PMN (CE/ml in a total volume of 1 ml). Values were expressed as the mean and SD of an individual experiment done in triplicate repeated at least 3 times.
Arachidonic acid is the initial substrate used by a variety of metabolic pathways involving lipoxygenase (LO) activities—enzymes that add hydroxyl groups at specific carbon atoms of this 20-carbon fatty acid. […] Therefore, in addition to hepoxilin A3, a wide range of arachidonic acid metabolites for their ability to incite the transmigration of PMNs across T84 monolayers in vitro was examined (Table 1). […] This is consistent with previous reports that LTB4 is capable of inducing PMN transmigration.

PMN [2] = experiment: PMN intracellular Ca2+ mobilization; format: cell-based, human
From the text: Further, crude PEEC preparations were collected from postinfected T84 cells monolayers. Samples were first passed through an Amicon ultra-filtration apparatus (Millipore Corp.; Bedford, Mass.) fitted with a 2,000 Da cut-off membrane. Filtrate components were bound to a Backerbond spe™ octadecyl extraction column (J. T. Baker; Philipsburg, N.J.) that was subsequently eluted with water, hexane, and finally methanol. The methanol fraction was dried under vacuum and resuspended in 50:50 (vol:vol) methanol:2 mM Tris HCl (pH 7.5) and injected onto a Vydac C18 (10 μm; 300 Å) semi-preparative column ([…]) equilibrated with 2 mM Tris-HCl (pH 7.5). A methanol gradient of 1-10% over 10 minutes, then 10-60% over 25 minutes, followed by 60-100% over 45 minutes (all at room temperature) was used to isolate active PEEC fractions. Active fractions, having no detectable absorbance at 280 nm and weak absorbance at 214 nm, were analyzed using a Genesis C18 (4 μm, 120 Å) analytical HPLC column (4.6×150 mm) equilibrated with 5 mM triethylamine/acetic acid (pH 7.2). […] (FIG. 2A and B).
(§2) To substantiate the notion that hepoxilin A3 was in fact the molecule responsible for PEEC bioactivity, it was examined whether synthetic hepoxilin A3 (BIOMOL, Plymouth Meeting, Pa.) could recapitulate PEEC bioactivity. […] Thus, authentic hepoxilin A3 recapitulates all known aspects of PEEC bioactivity consistent with the notion that hepoxilin A3 is in fact PEEC's active component.

PMN [3] = experiment: PMN degranulation assessed by elastase release; format: cell-based, human
From the text: as §2

[4] = system: PMN transmigration across T84 cell monolayers; experiment: Disruption of hepoxilin A3 gradient by basolateral addition, PMN transepithelial migration across T84 monolayers; format: cell-based, human; details: 5 μg/ml basolateral; migration induced by S. typhimurium, recombinant SipA or imposed gradients of hepoxilin A3
From the text: as §1
First, any potential gradient by adding excess synthetic hepoxilin A3 to the basolateral compartment was counteracted. […] The establishment of a hepoxilin A3 gradient was next measured quantitatively. […] Hepoxilin A3 decay in both compartments was exponential and the above stated T1/2 values were determined by analyzing the slope of a best-fit line to a log-linear analysis of each data set. […] Instead, the extent of recovery of hepoxilin A3 from the basolateral compartment following an apical application of 4500 pmoles was measured.

T84 monolayers [5] = experiment: Hepoxilin A3 degradation in apical and basolateral compartments of T84 monolayers; format: in vitro ADME, human; details: for time to 50% loss of intact compound (T1/2), average: average of two experiments
Procedure: (§3) First, any potential gradient by adding excess synthetic hepoxilin A3 to the basolateral compartment was counteracted. […] The establishment of a hepoxilin A3 gradient was next measured quantitatively. […] Hepoxilin A3 decay in both compartments was exponential and the above stated T1/2 values were determined by analyzing the slope of a best-fit line to a log-linear analysis of each data set. Because of the complex degradation events occurring in both the apical and basolateral compartments, no attempt was made to calculate a transport rate. Instead, the extent of recovery of hepoxilin A3 from the basolateral compartment following an apical application of 4500 pmoles was measured.

T84 monolayers [6] = experiment: Recovery of hepoxilin A3 in basolateral compartment after apical application to T84 monolayers; format: in vitro ADME, human; details: apical application of 4500 pmoles, over 90 minutes
Procedure: as §3

[7] = system: P. aeruginosa-induced PMN transepithelial migration, A549 cells; experiment: P. aeruginosa-induced PMN transepithelial migration across A549 cell monolayers; format: cell-based, human; details: excess hepoxilin A3 added to basolateral compartment; data not shown
From the text: It was further determined whether similar hepoxilin A3 recruitment of PMN by apically attached pathogens might occur at other mucosal surfaces. Pseudomonas aeruginosa is the most prominent bacterial spp. present during chronic infection in cystic fibrosis and chronic obstructive pulmonary disease patients and is accompanied by severe inflammation, including the emigration of PMN to the airway lumen (Pizurki et al., 2000; Jahn et al., 2000; Weiss, S. 1989). As a model for the airway epithelium the A549 cell line was used. This cell line is capable of forming a polarized barrier, and is widely employed as a model for the airway epithelial surface (Smart and Casale, 1994). […] Finally, the secretion of hepoxlin A3 in vitro was quantified using this A549 model system. For these experiments, A549 lung epithelial cells (ATTC) were grown in F12K media (Invitrogen) with 10% FBS, and maintained in culture similar to the T84 cell line. The wild type P. aeruginosa (PAO1) was used for infection of A549 after overnight aerobic growth (Luria broth) at 37° C.

[8] = Stability in acidified acetonitrile; format: physicochemical; details: overnight incubation in acid
Procedure: Molecules of the 5-LO, 8-LO, 12-LO and 15-LO pathways of arachadonic metabolism were analyzed by LC/MS breakdown patterns and compared to PEEC. […] Methylation of PEEC samples and hepoxilin A3 also provided similar ion spectra (data not shown). […] PEEC activity was also observed to have other chemical properties similar to hepoxilin A3, such as being labile in the presence of acetonitrile/0.1% trifluoroacetic acid (FIG. 3D).

CCCCC/C=C\C[C@@H]1O[C@H]1/C=C/C(O)C/C=C\CCCC(=O)O (some centres unmarked) [hepoxilin A3]
PMN transepithelial migration induced by imposed gradients ([1]; hepoxilin A3 0.5-5 μg/ml, FIG. 4A): induce PMN transepithelial migration in a dose dependent fashion | PMN transepithelial migration (PEEC activity) induced by added lipid [1]: induced transepithelial migration | PMN transepithelial migration (PEEC activity) induced by added lipid ([1]; listed as Hepoxilin A3): saturated response | PMN intracellular Ca2+ mobilization (PMN [2]): elicited an increase in [Ca^2+] in PMN | intracellular Ca2+ in PMN (PMN [2]; 5 μg/ml, FIG. 4B): increase in intracellular Ca^2+ | PMN degranulation (PMN [3]): did not induce PMN degranulation; also recorded: not observed | effect of basolateral addition on PMN transepithelial migration [4]: significantly diminished PMN transepithelial migration | time to 50% loss of intact compound (T1/2), single experiments (T84 monolayers [5]; apical chamber): 77 min and 87 min | time to 50% loss of intact compound (T1/2), average (T84 monolayers [5]; apical chamber of T84 monolayers): 82 min | time to 50% loss of intact compound (T1/2), single experiments (T84 monolayers [5]; basolateral compartment): 49 min and 37.5 min | time to 50% loss of intact compound (T1/2), average (T84 monolayers [5]; basolateral compartment of T84 monolayers): 43 min | amount of intact compound recovered from the basolateral compartment (T84 monolayers [6]): low but detectable amount and low | P. aeruginosa-induced PMN transepithelial migration with gradient disruption [7]: inhibited | stability in acetonitrile/0.1% trifluoroacetic acid [8]: labile
